# Columns and labels:
# [1] = tested on: H441 lung cancer cells; assay: Microarray analysis of gene transcription in H441 cells after antrocin treatment; type: cell-based, Homo sapiens; details: 12 hours
# Method: (§1) The present invention further investigated the effect of antrocin on cancer cells at the genetic level. After H441 cells had been treated with 5 μM antrocin for 12 hours, the effect of antrocin on genetic transcription was analyzed. Only those genes whose expressions were inhibited 3.5 times or more were analyzed as target genes by GeneSpring software package and the results were presented using a tree diagram (FIG. 5). […] These genes play important roles in cell proliferations, inflammatory responses, metastases, invasions, angiogenesis, and cell cycle regulations. […] These genes are associated with transcription factor NF-kB, for example cytokines (IFI44, IFIT1, MX1), inflammatory responses (NFkB1 and IFIT2), stem cell properties (CTNNBL1, SENP2, CEACAM1 and POU5F2), and drug resistance reactions (ABCB5, ABCG2 and XAF1), etc. Based on the aforementioned microarray results, the present invention further investigated protein expressions associated with inflammation related factors, stem cell properties, and drug resistance related molecules.
# as §1, with “effect of Antrocin on genetic” for “effect of antrocin on genetic”, “a tree diagram. STRING9.0 software package was also used to predict the effect of antrocin on the signaling pathway of H441 cells and possible target genes to be inhibited (FIG. 5).” for “a tree diagram (FIG. 5).”, “example cytokines (1F144, IFIT1, MX1),” for “example cytokines (IFI44, IFIT1, MX1),”, “further investigated inflammatory responses, stem cell” for “further investigated protein expressions associated with inflammation related factors, stem cell”, “properties, and multidrug resistance-associated protein expressions.” for “properties, and drug resistance related molecules.”
# [2] = tested on: H1975 cells; assay: Cytotoxicity / cell proliferation, sulforhodamine B; type: cell-based, human; details: H1975, antrocin 0.5-10 μM, two days, FIG. 4 (A)
# Method: (§2) Human lung cancer cell lines (CL1-0, CL1-5, H1975, H441, PC9, A549) and human bronchial epithelia cell lines (BEAS-2B) were obtained from the Institute of Clinical Medicine, Taipei Medical University. The cells were grown and maintained in DMEM medium (Dulbecco's Modified Eagle's Medium and RPMI basal medium supplemented with 10% fetal bovine serum, 2 mM glutamine, […] streptomycin, and 100 U/ml penicillin in a wet incubator at 5% CO2.
# (§3) Lung cancer cell were grown in a medium supplemented with 10% fetal bovine serum until the cells grew to approximately 80% of their full-blown size. Old culture solution was drained, the lung cancer cells were washed with PBS buffer solution (phosphate buffered saline), and 10 ml of serum-free culture medium was added. Different pharmaceutical drugs were added according to experimental purposes, all reactions were carried out in an incubator at 37° C.
# (§4) Human lung cancer cells (CL1-0, CL1-5, H1975, H441, PC9, A549) and human bronchial epithelial cells (BEAS-2B) were seeded in 96-well culture plates (2000 cells/well) and incubated overnight in 100 μl complete DMEM. […] After two days, total number of human cells in each well was measured using sulforhodamine B (a fluorescent protein dye). […] The optical density was measured at 562 nm by a microtiter plate detector. […]
# [3] = tested on: H441 cells; assay: as above; type: cell-based, human; details: H441, antrocin 0.5-10 μM, two days, FIG. 4 (A)
# Method: as §2, §3, §4
# [4] = Body weight of tumor-bearing mice; type: in vivo, non-obese diabetic/severe combined immunodeficient mice; details: 5 and 10 mg/kg/day intraperitoneal, four weeks, FIG. 7 (C)
# Method: […] cells (6×10^5/100 μl PBS) were intravenously injected into immunodeficient mice via lateral tail vein. Antrocin treatments (low dose of 5 mg/kg/day and high dose of 10 mg/kg/day) were performed by daily intraperitoneal injection into tumor-bearing mice over a period of four weeks. Weekly observations were performed and data were recorded for (A) VIS images, (B) Tumor growth, (C) Body weights, and (D) Survival curves.
# The present invention further investigated anticancer effect of antrocin in vivo. H441-L2G cells expressing firefly luciferase and green fluorescent protein were implanted by intravenous injections via the lateral tail vein (6×10^5/100 μl PBS) into non-obese diabetic/severe combined immunodeficient mice. Daily intraperitoneal injections of antrocin (two groups of mice, a low dose of 5 mg/kg/day and a high dose of 10 mg/kg/day) were given over a period of four weeks to observe tumor growth.
# The present invention further investigated the anticancer effect of antrocin in vivo. H441-L2G cells expressing firefly luciferase and green fluorescent protein were implanted by intravenous injections via the lateral tail vein (6×10^5/100 μl PBS) into non-obese diabetic/severe combined immunodeficiency mice. […]
structure (smiles),measurement,setting,value
C=C1CC[C@H]2C(C)(C)CCC[C@@]23C(=O)OC[C@@H]13 [antrocin],number of genes whose expressions were significantly affected,[1]; 5 μM antrocin,more than 100 genes
same,Multiple (reduction of gene expression),"[1]; ABCB5, probe 8137310, 5 μM antrocin",3.62
same,Multiple (reduction of gene expression),"[1]; ABCG2, probe 8101675, 5 μM antrocin",3.93
same,Multiple (reduction of gene expression),"[1]; AKT1S1, probe 8038477, 5 μM antrocin",10.29
same,Multiple (reduction of gene expression),"[1]; ANG, probe 7973084, 5 μM antrocin",4.24
same,Multiple (reduction of gene expression),"[1]; CDC14C, probe 8132803, 5 μM antrocin",5.49
same,Multiple (reduction of gene expression),"[1]; CEACAM1, probe 8037205, 5 μM antrocin",4.99
same,Multiple (reduction of gene expression),"[1]; CXCL10, probe 8101126, 5 μM antrocin",4.62
same,Multiple (reduction of gene expression),"[1]; EDG7, probe 7917276, 5 μM antrocin",3.75
same,Multiple (reduction of gene expression),"[1]; EPSTI1, probe 7971296, 5 μM antrocin",5.61
same,Multiple (reduction of gene expression),"[1]; FLJ35880, probe 8082585, 5 μM antrocin",5.48
same,Multiple (reduction of gene expression),"[1]; FOSL1, probe 7949532, 5 μM antrocin",9.93
same,Multiple (reduction of gene expression),"[1]; GDPD1, probe 8008802, 5 μM antrocin",3.73
same,Multiple (reduction of gene expression),"[1]; IFI16, probe 7906400, 5 μM antrocin",4.9
same,Multiple (reduction of gene expression),"[1]; IFI44, probe 7902553, 5 μM antrocin",8.3
same,Multiple (reduction of gene expression),"[1]; IFIT1, probe 7929065, 5 μM antrocin",5.28
same,Multiple (reduction of gene expression),"[1]; IFIT2, probe 7929047, 5 μM antrocin",4.44
same,Multiple (reduction of gene expression),"[1]; IFITM2, probe 7937330, 5 μM antrocin",6.16
same,Multiple (reduction of gene expression),"[1]; LAMP3, probe 8092348, 5 μM antrocin",3.8
same,Multiple (reduction of gene expression),"[1]; LBA1, probe 8086125, 5 μM antrocin",4.35
same,Multiple (reduction of gene expression),"[1]; LILRA3, probe 8039226, 5 μM antrocin",4.58
same,Multiple (reduction of gene expression),"[1]; MX1, probe 8068713, 5 μM antrocin",5.42
same,Multiple (reduction of gene expression),"[1]; NFKB1, probe 8096635, 5 μM antrocin",3.85
same,Multiple (reduction of gene expression),"[1]; OAS2, probe 7958913, 5 μM antrocin",5.91
same,Multiple (reduction of gene expression),"[1]; OASL, probe 7967117, 5 μM antrocin",4.09
same,Multiple (reduction of gene expression),"[1]; OR1L8, probe 8163960, 5 μM antrocin",3.83
same,Multiple (reduction of gene expression),"[1]; PARP9, probe 8090018, 5 μM antrocin",4.03
same,Multiple (reduction of gene expression),"[1]; PARP14, probe 8082100, 5 μM antrocin",4.3
same,Multiple (reduction of gene expression),"[1]; POU5F2, probe 8113094, 5 μM antrocin",3.9
same,Multiple (reduction of gene expression),"[1]; PPARGC1A, probe 8099633, 5 μM antrocin",4.44
same,Multiple (reduction of gene expression),"[1]; RTP4, probe 8084732, 5 μM antrocin",4.6
same,Multiple (reduction of gene expression),"[1]; SAMD9L, probe 8140971, 5 μM antrocin",4.08
same,Multiple (reduction of gene expression),"[1]; SENP2, probe 8084607, 5 μM antrocin",8.9
same,Multiple (reduction of gene expression),"[1]; SIGLEC5, probe 8038877, 5 μM antrocin",4.94
same,Multiple (reduction of gene expression),"[1]; SLFN5, probe 8006531, 5 μM antrocin",3.65
same,Multiple (reduction of gene expression),"[1]; TAX1BP3, probe 8011407, 5 μM antrocin",7.15
same,Multiple (reduction of gene expression),"[1]; TNFSF10, probe 8092169, 5 μM antrocin",4.09
same,Multiple (reduction of gene expression),"[1]; TRIM22, probe 7938035, 5 μM antrocin",7.65
same,Multiple (reduction of gene expression),"[1]; XAF1, transcript variant 1, probe 8004184, 5 μM antrocin",12.61
same,Multiple (reduction of gene expression),"[1]; ZC3H6, probe 8044450, 5 μM antrocin",3.5
same,Multiple (reduction of gene expression),"[1]; cDNA DKFZp451O2417, probe 7902541, 5 μM antrocin",10.74
same,Multiple (reduction of gene expression),"[1]; catenin, beta like 1 (TNNBL1), probe 8062409, 5 μM antrocin",3.59
same,inhibition of cancer cell growth/proliferation,[2],most robust inhibitions
same,inhibition of cancer cell growth/proliferation,[3],most robust inhibitions
same,"body weight, treated group vs control group",[4],no significant difference

# — patent publication US9045450B2, “Method for chemical synthesis of antrocin and use thereof for suppressing non-small cell lung cancer” (KAIYEW INVESTMENT CORP., priority 2011, dated 2015)
